{
  "source": "patent US20210380722A1",
  "about": "“COMPOSITIONS AND METHODS FOR THE TREATMENT OF MAJOR DEPRESSIVE DISORDER” (Snake River Bioscience, Inc., priority 2019, published 2021)",
  "key": {"[1]": {"test_system": "wildtype mice", "assay": "C16-ceramide loaded plasma or exosomes injected i.v. into wildtype mice", "type": "in vivo", "conditions": "plasma or exosomes of untreated mice loaded with 2 μM C16-ceramide, FIG. 4e", "description": "Plasma or exosomes were loaded with C16 ceramide or deuterated C16 ceramide (Avanti Polar Lipids, USA) by incubation of purified exosomes with 2 μM C16 ceramide or 2 deuterated C16 ceramide in 100 μL PBS for 60 min at 37° C. Plasma samples were directly injected i.v. into healthy mice. Exosomes were centrifuged again at 100,000×g for 70 min, the supernatant was discarded, resuspended in PBS and injected i.v. into healthy mice.\nFor BrdU staining, mice were injected with BrdU 4 times, once every 2 h. Mice were sacrificed 24 h after the first injection and brains were prepared as above. […]\nBehavioral testing was performed between 3:00 p.m. and 6:00 p.m. under diffuse indirect room light. […] The time was recorded during which the mice explored a new environment before they began eating. […] The time that the mouse spent in each of the separate compartments was recorded. […] In the coat state test, the appearance of the coat (groomed vs unkempt coat) was scored on the head, neck, back, and ventrum with either a zero for normal status or a 1 for unkempt status. […] After 24 h the mice were again placed in a water-filled cylinder for 6 min, and the time of mobility or immobility during the last 4 min of the second trial was recorded. […]"}, "[2]": {"test_system": "hippocampal neurons", "conditions": "cited from earlier work; for autophagy: Gulbins et al., Molecular Psychiatry (2018)"}, "[3]": {"test_system": "sphingomyelin synthases", "conditions": "direct inhibition of sphingomyelin synthases; cited from earlier work"}, "[4]": {"test_system": "wildtype mice", "assay": "ceramide concentrations in exosomes from blood plasma of stressed mice (mass spectrometry, kinase assay)", "type": "in vivo", "conditions": "corticosterone via drinking water 120 mg/L for 7 days; FIG. 1c", "description": "Corticosterone (Sigma, St. Louis, Mo.) was administered to mice via the drinking water at 120 mg/L for 7 days. In the chronic unpredictable stress model (CUS), the mice were challenged with unpredictable environmental stress for 8 days, i.e., a reversal of the light/dark cycle, 3 h of 45° tilting of the cage twice each week, shaking at 125 rpm, food deprivation for 14 h, predator sounds (15 min) or wet cages (1 h) with two forms of stress per day in a randomized (unpredictable) order. Blood was collected from the heart into heparin-coated needles and tubes immediately after sacrifice by cervical dislocation. Blood plasma was centrifuged at 3500 rpm for 5 min at 4° C. in an Eppendorf centrifuge. […]\n10 μL of blood plasma or of resuspended exosomes (corresponding to 50 μL plasma) was added to 190 μL H2O and extracted in 600 μL CHCl3:CH3OH:1N HCl (100:100:1, v/v/v). […] Ceramide amounts were determined by comparison with a standard curve; C16 to C24 ceramides were used as substrates.\nSamples were subjected to lipid extraction with 1.5 mL methanol/chloroform (2:1, v:v). […] Dried residues were reconstituted in 200 μL of a 95:5 (v:v) mixture of high-performance liquid chromatography (HPLC) eluents B:A (see below), thoroughly vortexed for 10 min at 1,500 rpm, centrifuged at 2,200×g for 10 min at 4° C., and subjected to mass spectrometric sphingolipid quantification. […]"}, "[5]": {"test_system": "untreated mice", "assay": "high dose of corticosterone in untreated mice, symptoms of major depression after 24 h", "type": "in vivo", "conditions": "1 mg/kg, data not shown", "description": "To exclude the possibility that investigators were measuring the effects of corticosterone that might have remained in the plasma of these mice, untreated mice were injected with a high dose of corticosterone (1 mg/kg) and the presence of biochemical and behavioral symptoms of major depression after 24 h were assessed."}},
  "data": [
    {"compound": "CCCCCCCCCCCCC/C=C/[C@@H](O)[C@H](CO)NC(=O)CCCCCCCCCCCCCCC", "note": "[C16-ceramide, C16 ceramide]", "values": [
      {"measurement": "induction of MDD (behavioral changes and neuronal proliferation)", "setting": "[1]", "result": "sufficient to induce MDD within 24 h"}
    ]},
    {"compound": "S=C(S)OC1CC2CC1C1CCCC21", "note": "(centres unmarked) [D609]", "values": [
      {"measurement": "autophagy", "setting": "[2]", "result": "activation of autophagy"},
      {"measurement": "ceramide in the endoplasmic reticulum (ER)", "setting": "[2]; direct inhibition of sphingomyelin synthases", "result": "rapid accumulation of ceramide in the ER"},
      {"measurement": "stress-induced MDD", "setting": "[3]", "result": "rapid reversal of stress-induced MDD"}
    ]},
    {"compound": "CN(C)CCC=C1c2ccccc2CCc2ccccc21", "note": "[amitriptyline]", "values": [
      {"measurement": "autophagy", "setting": "[2]", "result": "induce autophagy in hippocampal neurons"}
    ]},
    {"compound": "CNCCC(Oc1ccc(C(F)(F)F)cc1)c1ccccc1", "note": "(centres unmarked) [fluoxetine]", "values": [
      {"measurement": "autophagy", "setting": "[2]", "result": "induce autophagy in hippocampal neurons"}
    ]},
    {"compound": "C[C@]12C[C@H](O)[C@H]3[C@@H](CCC4=CC(=O)CC[C@@]43C)[C@@H]1CC[C@@H]2C(=O)CO", "note": "[glucocorticosterone, Corticosterone]", "values": [
      {"measurement": "ceramide concentrations in exosomes in the blood plasma", "setting": "[4]", "result": "marked increase in ceramide concentrations"},
      {"measurement": "induction of MDD (biochemical and behavioral symptoms of major depression)", "setting": "[5]", "result": "not sufficient to induce MDD"}
    ]}
  ]
}
